Test results as given in ChEMBL document CHEMBL1201862, “PubChem BioAssay data set” (2004).
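Five compound concentrations were applied to cells in 96-well plates for 48 hours; endpoints were derived by simple linear interpolation of the resulting dose-response curve. GI50: concentration for 50% inhibition of growth.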 Activity calls are given as the source filed them. No stated cut-off is given here; in the data, active = GI50 up to about 1.1 µM and inactive = higher.

Columns and labels:
Experiment in all cases: DTP human tumour cell line panel, 48 h
ACHN = tested on: ACHN
CCRF-CEM = tested on: CCRF-CEM
HCT-116 = tested on: HCT-116
HL-60 = tested on: HL-60
Hs-578T = tested on: Hs-578T
IGROV-1 = tested on: IGROV-1
K562 = tested on: K562
MDA-N = tested on: MDA-N
NCI-H460 = tested on: NCI-H460
NCI-H522 = tested on: NCI-H522
SF-295 = tested on: SF-295
SF-539 = tested on: SF-539
SW-620 = tested on: SW-620
TK-10 = tested on: TK-10
U-251 = tested on: U-251
UACC-257 = tested on: UACC-257
UACC-62 = tested on: UACC-62

Row | SMILES | GI50 (ACHN) | GI50 (CCRF-CEM) | GI50 (HCT-116) | GI50 (HL-60) | GI50 (Hs-578T) | GI50 (IGROV-1) | GI50 (K562) | GI50 (MDA-N) | GI50 (NCI-H460) | GI50 (NCI-H522) | GI50 (SF-295) | GI50 (SF-539) | GI50 (SW-620) | GI50 (TK-10) | GI50 (U-251) | GI50 (UACC-257) | GI50 (UACC-62)
1 | N=C1N(c2ccccc2)C(=S)/C(=N/c2ccccc2)N1c1ccccc1 | 8.28 µM (inactive) | 4.27 µM (inactive) | 2.53 µM (inactive) | 3.12 µM (inactive) | 10 µM (inactive) | 12 µM (inactive) | 2.45 µM (inactive) | 2.45 µM (inactive) | 11.5 µM (inactive) | 2.81 µM (inactive) | 16.6 µM (inactive) | 12.4 µM (inactive) | 4.27 µM (inactive) | 15 µM (inactive) | 14.2 µM (inactive) | 2.55 µM (inactive) | 5.77 µM (inactive)
2 | O=C1Oc2ccccc2C(=O)/C1=C1/C=C(c2ccccc2)SS1 | > 100 µM (inactive) | 22.6 µM (inactive) | 56.6 µM (inactive) | 21.9 µM (inactive) | > 100 µM (inactive) | 86.5 µM (inactive) | 42.5 µM (inactive) | 34.8 µM (inactive) | > 100 µM (inactive) | 49.3 µM (inactive) | > 100 µM (inactive) | > 100 µM (inactive) | > 100 µM (inactive) | > 100 µM (inactive) | 76 µM (inactive) | > 100 µM (inactive) | 82.8 µM (inactive)
3 | CCC1CCN/C(=N/S(=O)(=O)c2cc(C)c(Cl)cc2S)N1 (centres undefined) | 34.6 µM (inactive) | 25.9 µM (inactive) | 24.7 µM (inactive) | 30.8 µM (inactive) | 28.4 µM (inactive) | 24.2 µM (inactive) | 32.4 µM (inactive) | 33 µM (inactive) | 8.2 µM (inactive) | 27.7 µM (inactive) | – | 29.4 µM (inactive) | 28.7 µM (inactive) | 37.7 µM (inactive) | 13.8 µM (inactive) | 42.9 µM (inactive) | 14 µM (inactive)
4 | COCOc1c(C(O[Si](C)(C)C(C)(C)C)c2cnc(Sc3ccccc3)n2C)ccc(OC)c1OC (centres undefined) | 2.42 µM (inactive) | 2.84 µM (inactive) | 1.6 µM (inactive) | 1.87 µM (inactive) | 2.31 µM (inactive) | 1.97 µM (inactive) | 2.75 µM (inactive) | 1.77 µM (inactive) | 1.53 µM (inactive) | 1.62 µM (inactive) | 2.65 µM (inactive) | 1.97 µM (inactive) | 1.93 µM (inactive) | 4.28 µM (inactive) | 1.64 µM (inactive) | 2.25 µM (inactive) | 1.65 µM (inactive)
5 | O=[N+]([O-])C(/C=C(\Cl)[N+](=O)[O-])=C(N1CCOCC1)N1CCOCC1 | 41.7 µM (inactive) | 56.9 µM (inactive) | 25.3 µM (inactive) | 18.4 µM (inactive) | 0.232 µM (active) | > 100 µM (inactive) | 18.3 µM (inactive) | > 100 µM (inactive) | > 100 µM (inactive) | 41.8 µM (inactive) | > 100 µM (inactive) | 22.3 µM (inactive) | – | 47 µM (inactive) | 24.6 µM (inactive) | > 100 µM (inactive) | 85.7 µM (inactive)
6 | CO/C=C(/C(=O)OC)c1ccccc1[C@H]1C[C@@H]1c1ccc(OC)cc1 | 22 µM (inactive) | 25.4 µM (inactive) | 16.3 µM (inactive) | 25.2 µM (inactive) | 25.9 µM (inactive) | 14.3 µM (inactive) | 15.8 µM (inactive) | 12.9 µM (inactive) | 21.9 µM (inactive) | 7.93 µM (inactive) | 17.2 µM (inactive) | 17 µM (inactive) | – | 37.5 µM (inactive) | 30.8 µM (inactive) | 25.8 µM (inactive) | 23.1 µM (inactive)
